Measurements as given in patent US7385039B2, “Methods and compositions for regulating imidazoline receptors” (priority 1998, dated 2008).
“And” between values parts separate entries of the source, which are not always exact repeats. Identical values can stand only once. “Also recorded” adds a separate entry of the source. Like-named read-outs stand apart in the source and are kept apart here.

Legend:
I3R [1] = assay: I3R model: insulin release from rat islets of Langerhans; assay type: cell-based
Method: (§1) Islets of Langerhans from male Wistar rats were isolated by collagenase digestion in a medium of bicarbonate-buffered physiological saline solution containing 4 mM D-glucose and 1 mM CaCl2. Islets were selected under a binocular dissecting microscope and were used within two hours of isolation. Islets from humans were isolated from heart-beating cadaver organ donors by collagenase digestion and density gradient centrifugation (Chan, S. L. F., et al., 1997, Brit. J. Pharmacol. 120:926-932).
Incubations were done in 96-well plates. Isolated islets were incubated in 100 μl buffer solution supplemented with bovine serum albumin in humidified air: CO2 (95:5%) at 37° C. in the presence of test agents. To eliminate any potential alpha-2 responses, yohimbine (10 μM), a potent alpha2-adrenergic blocker, was included in all incubations. After 60 min incubation, samples of medium were removed for measurement of insulin release by radioimmunoassay using anti-bovine insulin antiserum. Presence of insulin in the test media were compared to controls; positive differences represented amounts of insulin released. In reversal experiments, diazoxide (e.g., 200 μM) was pre-incubated to block glucose-induced insulin release. In these studies, test reagents were used to determine if they were capable of overcoming diazoxide's inhibitory effects on K+ ATP channels, a well known action of imidazoline secretagogues in islet cells. For example, efaroxan (an inhibitor of I-1 responses in adrenal medullary cells) is a well known I-3 agonist, i.e., it stimulates (at 100 μM) release of insulin and overcomes diazoxide inhibition thus illustrating again the dictomy between I1 and I3 receptor subtypes.
I3R model: Insulin release from pancreas (Eglen, R. M., Hudson, A. L., Kendall, D. A., Nutt, D. J., Morgan, N. G., Wilson, V. G. & Dillon, M. P. (1998) TIPS 19, 381-390; Chan, S. L. F. (1998) Gen. Pharmacol. 31, 525-529; Morgan, N. G. (1999) Exp. Opin. Invest. Drugs 8, 575-584). Islets of Langerhans from male Wistar rats or human pancreata were isolated by collagenase digestion. Hand-picked islets were incubated in NaHCO3-buffered saline containing 1 mM CaCl2, 1 mg/ml BSA and test reagents. After incubation, insulin levels in supernatants were analyzed by RIA. The I3-blocker, KU-14R, served to verify I3R function.

SH rats = assay: Mean arterial pressure and heart rate after microinjection into the RVLM of rats; assay type: in vivo, rat
Method: Effects of ribotide on mean arterial pressure (MAP) and heart rate (HR). Bilateral I-4-AA-RP microinjections (60 nl, 100 nmol) into the RVLM of SH rats were performed (Emsberger, P. & Haxhiu, M. A. (1997) Am. J. Physiol. 273, R1572-R1579) after the sympatho-excitatory area was confirmed by showing glutamate-induced MAP elevation ≧30 mm Hg. MAP and HR values were measured every 5 min. After each experiment, the injection site was marked by infusion of rhodamine microspheres. Changes were assessed relative to baseline values by two-way repeated measures ANOVA and Dunnett's test. A second group of SH rats (injection controls) received vehicle injections to control for injection effects and for volume artifacts due to multiple injections. Vehicle contained 2 nmol rilmenidine, a sub-threshold dose, far below that known to cause any detectable effect (Gomez, R. E., Emsberger, P., Feinland, G. & Reis, D. J. (1991) Eur. J. Pharmacol. 195, 181-191). In a follow-up study, SH rats (N=6) were given I-4-AA-RP then moxonidine. When used alone, it reduces MAP to normotensive levels (Emsberger, P., Elliott, H. L., Weimann, H.-J., Raap, A., Haxhiu, M. A., Hofferber, E., Low-Kroger, A., Reid, J. L. & Mest, H. J. (1993) Cardiovas. Drug Rev. 11, 411-431).

α2-Adrenergic Sites = assay: [125I]p-iodoclonidine competition binding to bovine RVLM membranes, α2-adrenergic sites; details: for Ki: read-out: Ki, α2-Adrenergic Sites (low affinity sites)
Text: (§2) Whole bovine brains and adrenal glands were obtained from a local slaughterhouse. Brains were immediately placed on a chilled glass plate, washed with ice-cold Krebs'-Henseleit buffer, and dissected. The rostral medulla was isolated by transecting the brainstem rostrally at the posterior margin of the trapezoid body and caudally 1 cm caudal to the obex. The pia-arachnoid was removed, and the lateral medulla was isolated by a sagittal section through the lateral margin of the pyramids, and then bisected. The ventral half was defined as the ventrolateral medulla (VLM). Brain samples were transported on ice to the laboratory and processed immediately.
(§3) Fresh bovine VLM was homogenized by using a polytron (Tekmar Tissuemizer, setting 80 for 2×15 sec) in 20 volumes of ice-cold Hepes-buffered isotonic sucrose (pH brought to 7.4 with Tris base) containing the protease inhibitors (1,10)-phenanthroline (100 μM) and phenylmethylsulfonyl fluoride (50 μM) in order to inhibit degradation of receptor protein. Bovine adrenomedullary cells were homogenized in 15 ml Hepes-buffered isotonic sucrose by 10 strokes in a glass-glass hand-held homogenizer. All three homogenates were centrifuged at 1000×g for 5 min at 4° C. to remove nuclei and debris. The pellets (P1) were resuspended in 20 ml of homogenization buffer, and centrifuged again at 1000×g for 5 min. The combined supernatants were centrifuged at 48,000 g for 18 min at 4° C., and the resulting P2 pellet was resuspended in 10 to 25 volumes of 50 mM Tris-HCl buffer (pH 7.7) containing 5 mM EDTA. After recentrifugation at 48,000 g for 18 min, the resulting membrane pellet was resuspended in Tris-HCl containing 25 mM NaCl, preincubated for 30 min at 25° C., chilled on ice, centrifuged again, resuspended a final time in Tris-HCl alone, centrifuged, flash-frozen, and stored at −70° C. for up to three months.
(§4) Radioligand binding assays with [^3H]clonidine or [^125I]p-iodoclonidine for determination of specific membrane binding to VLM and renal medulla imidazoline sites and α2-adrenergic receptors were performed by a modification of methods previously described (Ernsberger P. et al., 1997, J. Hypertension 1997, 15:S9-S23). Membranes were slowly thawed and resuspended in Tris-Hepes buffer (5.0 mM; pH 7.7 at 25° C., containing 0.5 mM EDTA, 0.5 mM EGTA, and 0.5 mM MgCl2) at a concentration of 1 mg protein/ml for the VLM, 4 mg protein/ml for the renal medulla, and 0.2 mg protein/ml for adrenomedullary cells. Assays were conducted in a total volume of 250 μl in polypropylene 96-well plates (Beckman Macrowell), and each well contained 125 μl membrane suspension, 25 μl radioligand, and 100 μl drug or vehicle. Incubations were initiated by the addition of membrane and were carried out for 30 min at 22° C. Nonspecific binding was defined in the presence of 10 μM BDF-6143, an imidazoline adrenergic agent. Specific α2-adrenergic binding was defined by inhibition with (−)epinephrine (0.1 mM). In experiments using catecholamines, all samples contained ascorbic acid in a final concentration of 0.001%. Incubations were terminated by vacuum filtration using a cell harvester (Brandel) equipped with Teflon tubing to reduce absorption of the radioligand over glass fiber filters (Schleicher & Schuell #34) which were preincubated for 4 h at 4° C. in 0.03% polyethylimine to reduce nonspecific binding to the filter. The filters were washed four times with 5 ml ice-cold Tris-HCl, placed in scintillation vials, covered with 4 ml scintillation cocktail (BioSafe II, Research Products International), and counted at 50% efficiency (Beckman LS5801). Protein was assayed by the bicinchoninic acid method.
(§5) Data were obtained as dpm and transferred to the Equilibrium Binding Data Analysis (EBDA) program for initial processing; 4 to 10 experiments were analyzed simultaneously by using the LIGAND program for nonlinear curve-fitting. Protein assay data were also analyzed by nonlinear curve-fitting.
(§6) Competition binding assays. […]

Imidazoline I Sites = assay: [125I]p-iodoclonidine competition binding to bovine RVLM membranes, imidazoline sites
Text: as §2, §3, §4, §5, §6

I1R = I1R model: [3H]arachidonic acid release from PC-12 cells; assay type: cell-based; details: for stimulation of [3H]AA release (in words): IAA-R 10 μM-1 mM
Method: Assays for measuring imidazoline receptor-mediated arachidonic acid release from PC12 cells is as described in Ernsberger et al., (1995, FASEB J. 9:A114).
I1R model: [^3H]Arachidonic acid (AA) release from PC-12 cells. Assays (Emsberger, P. (1998) J. Auton. Nerv. Syst. 72, 147-154 Ernsberger, P. (1998) J. Auton. Nerv. Syst. 72, 147-154) were done after a 30 min washout to attain a stable background. Cells were superfused with 0.01% BSA in Krebs buffer for seven 1-min fractions (baseline), then treated with 10 μM or 100 μM I-4-AA-RP alone, or together with efaroxan (10 μM), a prototypical I1-antagonist/I3-agonist. Controls included baseline release with vehicle alone (0-7 min) or vehicle containing efaroxan (5 min) before adding I-4-AA-RP. [^3H]products (>98% AA) collected in each 1-min fraction were expressed as fractional release defined as % total radioactivity incorporated into cells, corrected for [^3H]AA previously released (Ernsberger, P. (1998) J. Auton. Nerv. Syst. 72, 147-154).

I3R [2] = assay: I3R model: insulin release from human islets; assay type: cell-based
Method: as §1
Incubations were done in 96-well plates. Isolated islets were incubated in 100 μl buffer solution supplemented with bovine serum albumin in humidified air: CO2 (95:5%) at 37° C. in the presence of test agents. To eliminate any potential alpha-2 responses, yohimbine (10 μM), a potent alpha2-adrenergic blocker, was included in all incubations. After 60 min incubation, samples of medium were removed for measurement of insulin release by radioimmunoassay using anti-bovine insulin antiserum. […]
I3R model: Insulin release from pancreas (Eglen, R. M., Hudson, A. L., Kendall, D. A., Nutt, D. J., Morgan, N. G., Wilson, V. G. & Dillon, M. P. (1998) TIPS 19, 381-390; Chan, S. L. F. (1998) Gen. Pharmacol. 31, 525-529; Morgan, N. G. (1999) Exp. Opin. Invest. Drugs 8, 575-584). […] After incubation, insulin levels in supernatants were analyzed by RIA. […]

β-TC3 cells = assay: Insulin release from insulinoma cells in culture; assay type: cell-based
I3R [3] = details: cited from earlier work
[4] = With cimetidine (I-sites masked)

O=C(O)Cc1cncn1[C@@H]1O[C@H](CO)[C@@H](O)[C@H]1O [pros-IAA-R, 1-(β-D-ribofuranosyl)-imidazole-5-acetic acid]
reversal of the inhibitory action of diazoxide on glucose-induced insulin release (I3R [1]): able to reverse the inhibitory action of diazoxide
stimulation of insulin release (in words) (I3R [1]; rat islets): effects similar to or even greater than that seen with tele IAA-RP

COc1nc(C)nc(Cl)c1N=C1NCCN1 [MOX, moxonidine, reference compound]
lowering of MAP (SH rats; SH rats with IAA-RP-elevated MAP, 4 nmol, within 30 min): 37.3±6.3%
reversal of IAA-RP's hypertensive effect (SH rats; SH rats, 4 nmol microinjected): completely reversed IAA-RP's effect

CCC1(c2ncc[nH]2)Cc2ccccc2O1 (stereo not shown) [KU-14R, reference compound]
blockade of IAA-RP-induced insulin secretion (I3R [1]; KU-14R 100 μM, IAA-RP 1 μM, diazoxide 200 μM): abolished IAA-RP-induced secretion

O=C(O)Cc1cn(C2OC(COP(=O)(O)O)C(O)C2O)cn1 [IAA-RP, 1-(β-D-ribofuranosyl)-imidazole-4-acetic acid 5′ phosphate]
Percent Sites, α2-Adrenergic Sites (α2-Adrenergic Sites; Control (no masking ligand)): 29 ± 5%
Ki (α2-Adrenergic Sites; Control (no masking ligand)): 57 ± 33 µM
Percent Sites, α2-Adrenergic Sites (α2-Adrenergic Sites; [4]): 100 ± 10%
Ki (α2-Adrenergic Sites; [4]): 210 ± 32 µM
Percent Sites, α2-Adrenergic Sites (α2-Adrenergic Sites; With epinephrine (α2Rs masked)): 14 ± 4%
Ki (α2-Adrenergic Sites; With epinephrine (α2Rs masked)): 60 ± 48 µM
fold lower affinity of remaining (low affinity) sites versus high affinity component (α2-Adrenergic Sites; no masking ligands): > 300 fold
rise of MAP over baseline (SH rats; SH rats, 100 nmol bilateral microinjection into RVLM): ~25 mm Hg
change of heart rate (HR) (SH rats; SH rats, 100 nmol into RVLM): no significant changes
MAP elevation above baseline (SH rats; SH rats, after six 100 nmol doses): 20.4±5.6%
affinity of high-affinity RVLM sites relative to low-affinity RVLM sites and adrenal I1R sites (Imidazoline I Sites): > 100 fold
fold greater affinity than IAA-R in displacing [125I]p-iodoclonidine (Imidazoline I Sites): > 100 fold
Percent Sites, Imidazoline I Sites (high affinity component) (Imidazoline I Sites; Control (no masking ligand)): 71% and 71±5%
Ki (Imidazoline I Sites; Control (no masking ligand), read-out: Ki, Imidazoline I Sites): 0.16 ± 0.038 µM
selectivity for I-Rs over α2-sites (Imidazoline I Sites; RVLM): > 1000 fold
Percent Sites, Imidazoline I Sites (high affinity component) (Imidazoline I Sites; With epinephrine (α2Rs masked)): 86% and 86±4%
Ki (Imidazoline I Sites; With epinephrine (α2Rs masked), read-out: Ki, Imidazoline I Sites): 0.1 ± 0.019 µM
increase of [3H]AA release (I1R; 10 μM): 68±29%
increase of [3H]AA release (I1R; 100 μM): 177±89%
stimulation of [3H]AA release (in words) (I1R): stimulated release of arachidonic acid
EC50 (I3R [2]): ~0.003 µM
stimulation of insulin release (β-TC3 cells): capable of stimulating insulin release
reversal of the inhibitory action of diazoxide on glucose-induced insulin release (I3R [1]): overcame inhibitory effects of the KATP-channel agonist, diazoxide
reversal of the inhibitory action of diazoxide on glucose-induced insulin release (I3R [1]; listed as tele-linked IAA-RP): able to reverse the inhibitory action of diazoxide
stimulation of insulin release (in words) (I3R [1]; rat islets): potent stimulants of insulin release; also recorded: increased insulin secretion from islets; also recorded: far more potent than efaroxan
EC50 (I3R [1]; rat islets, glucose 20 mM and diazoxide 200 μM): 0.03 to 0.05 µM

O=C(O)Cc1cn([C@@H]2O[C@H](CO)[C@@H](O)[C@H]2O)cn1 [IAA-R, 1-(β-D-ribofuranosyl)-imidazole-4-acetic acid]
change of heart rate (HR) (SH rats; SH rats, 100 nmol into RVLM): did not alter MAP or HR significantly
effect on MAP (in words) (SH rats; SH rats, 100 nmol into RVLM): did not alter MAP or HR significantly
Ki (Imidazoline I Sites; bovine RVLM membranes, [125I]PIC, read-out: K1 in RVLM, parallel assays): 266 ± 48 µM
stimulation of [3H]AA release (in words) (I1R): no significant response
reversal of the inhibitory action of diazoxide on glucose-induced insulin release (I3R [1]): able to reverse the inhibitory action of diazoxide
activity relative to IAA-RP's maximal activity on insulin release (I3R [1]; paired experiment, pancreatic beta cells): < 50%
stimulation of insulin release (in words) (I3R [1]; rat islets): potent stimulants of insulin release

CCC1(C2=NCCN2)Cc2ccccc2O1 (stereo not shown) [efaroxan, reference compound]
concentration of maximal stimulation of insulin release (I3R [3]): ~100 µM
blockade of IAA-RP-induced [3H]AA release (I1R; efaroxan 10 μM, before and throughout IAA-RP superfusion): abolished responses to IAA-RP; also recorded: blocked IAA-RP-induced release
